Data: US20080008773A1, “Food beverage or feed for the promotion of osteogenesis comprising umbelliferae, liliaceae or compositae plant species” (priority 2002, published 2008)

Assays:
ST-2 cells = assay: Induction of differentiation of ST-2 cells into osteoblasts (alkaline phosphatase as index); type: cell-based, Mouse
Description: (§1) (1) Mouse interstitial cell strain ST-2 was suspended in DMEM medium (manufactured by Bio Whittaker) containing 10% fetal bovine serum (manufactured by Bio Whittaker) so as to have a concentration of 3×10^4 cells/ml. The suspension was put to a 96-well plate in an amount of 0.1 ml per well, and the cells were cultured sterilely. After the cells were cultured for 2 days, the medium was exchanged with a fresh medium. The compound a derived from root portions of Angelica keiskei koidz. obtained in Example 1 was added thereto as a sample, and the cells were cultured for 3 days. Subsequently, differentiation of ST-2 cells into osteoblasts was measured using alkaline phosphatase as an index. The cells were washed once with PBS, 100 μl of a reaction substrate solution (100 mM diethanolamine buffer, pH 10.0, 2 mM magnesium chloride, 1 mM p-nitrophenyl phosphate) was added thereto, and the reaction was carried out at 37° C. for 30 minutes. Next, the reaction was terminated with adding 100 μl of 0.2 N sodium hydroxide, and the amount of p-nitrophenol which was released was determined by determining absorbance at 405 nm. The activity for induction of differentiation into osteoblasts was shown by setting a group without addition of the sample as a control, and defining alkaline phosphatase activity of the control as 100%. The experiments were carried out twice, and the average was taken.

MC3T3-E1 cells = assay: Induction of differentiation of MC3T3-E1 cells into osteoblasts (alkaline phosphatase as index); type: cell-based, Mouse
Description: as §1
Mouse pre-osteoblast strain MC3T3-E1 was suspended in DMEM medium containing 10% fetal bovine serum so as to have a concentration of 3×10^4 cells/ml. The suspension was put to a 96-well plate in an amount of 0.1 ml per well, and the cells were cultured sterilely. After the cells were cultured for 2 days, the medium was exchanged with a fresh medium. The compound a derived from root portions of Angelica keiskei koidz. obtained in Example 1 was added thereto as a sample, and the cells were cultured for 5 days. Subsequently, the differentiation into osteoblasts was determined using alkaline phosphatase as an index in the same manner as in Example 2.

## CC12CCC(O)C(C)(C)C1Cc1c(O)ccc(C(=O)/C=C/c3ccc(O)cc3)c1O2 (single isomer, unassigned) [Compound a, (E)-1-(5,6,7,8,8a,10a-hexahydro-1,7-dihydroxy-8,8,10a-trimethyl-9H-xanthen-4-yl)-3-(4-hydroxyphenyl)-2-propen-1-one]
ST-2 cells
  Induction of differentiation into osteoblasts (in words): induces differentiation into osteoblasts in a concentration-dependent manner
ST-2 cells; Mus musculus, 72 h, 0.313 μM, cultured 3 days, control without sample = 100%
  activity at 0.313 µM: 219%
ST-2 cells; Mus musculus, 72 h, 0.625 μM, cultured 3 days, control without sample = 100%
  activity at 0.625 µM: 260%
ST-2 cells; Mus musculus, 72 h, 1.25 μM, cultured 3 days, control without sample = 100%
  activity at 1.25 µM: 358%
MC3T3-E1 cells
  Induction of differentiation into osteoblasts (in words): induces the differentiation into osteoblasts in a concentration-dependent manner
MC3T3-E1 cells; Mus musculus, 120 h, 1.25 μM, cultured 5 days, control = 100%
  activity at 1.25 µM: 171%
MC3T3-E1 cells; Mus musculus, 120 h, 2.5 μM, cultured 5 days, control = 100%
  activity at 2.5 µM: 292%
